Data reported in ChEMBL document CHEMBL1201862, “PubChem BioAssay data set” (2004).
The source made the active and inactive calls.

Experiments:
[1] = general cell-killing toxicity readout – plate reader, dry powder samples, cytotoxicity control for PAX8 inhibitor project, dose response (AID 743021); format: functional, cell-based
Genome polyprotein = Genome polyprotein (dengue virus type 2, UniProt P29990); assay: flavivirus cap methylation enzyme inhibition – biochemical, confirmation dose response, primary screen (AID 588689); format: functional
Vero = assay: viability of Vero cells under compound – cytotoxicity control for flavivirus capping enzyme inhibitors (AID 588742); format: functional; conditions: Chlorocebus sabaeus
[2] = molecular target: Ras and Rab interactor 1/Tyrosine-protein kinase ABL1 (Homo sapiens, UniProt P00519+Q13671); format: functional;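 further: biochemical TR-FRET dose-response test measuring inhibition of binding between Rin1 and Abl proteins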
[3] = molecular target: Mitochondrial peptide methionine sulfoxide reductase (Bos taurus, UniProt P54149); assay: Absorbance-based biochemical high throughput dose response assay for activators of Methionine sulfoxide reductase A (MsrA).; format: functional
Hexokinase HKDC1 = molecular target: T1, Hexokinase HKDC1 (Homo sapiens, UniProt Q2TB90); assay: inhibition of HKDC1 glucose phosphorylation – biochemical, W721R variant, dose response (AID 504729); format: functional
T1 sequence (Q2TB90 whole entry): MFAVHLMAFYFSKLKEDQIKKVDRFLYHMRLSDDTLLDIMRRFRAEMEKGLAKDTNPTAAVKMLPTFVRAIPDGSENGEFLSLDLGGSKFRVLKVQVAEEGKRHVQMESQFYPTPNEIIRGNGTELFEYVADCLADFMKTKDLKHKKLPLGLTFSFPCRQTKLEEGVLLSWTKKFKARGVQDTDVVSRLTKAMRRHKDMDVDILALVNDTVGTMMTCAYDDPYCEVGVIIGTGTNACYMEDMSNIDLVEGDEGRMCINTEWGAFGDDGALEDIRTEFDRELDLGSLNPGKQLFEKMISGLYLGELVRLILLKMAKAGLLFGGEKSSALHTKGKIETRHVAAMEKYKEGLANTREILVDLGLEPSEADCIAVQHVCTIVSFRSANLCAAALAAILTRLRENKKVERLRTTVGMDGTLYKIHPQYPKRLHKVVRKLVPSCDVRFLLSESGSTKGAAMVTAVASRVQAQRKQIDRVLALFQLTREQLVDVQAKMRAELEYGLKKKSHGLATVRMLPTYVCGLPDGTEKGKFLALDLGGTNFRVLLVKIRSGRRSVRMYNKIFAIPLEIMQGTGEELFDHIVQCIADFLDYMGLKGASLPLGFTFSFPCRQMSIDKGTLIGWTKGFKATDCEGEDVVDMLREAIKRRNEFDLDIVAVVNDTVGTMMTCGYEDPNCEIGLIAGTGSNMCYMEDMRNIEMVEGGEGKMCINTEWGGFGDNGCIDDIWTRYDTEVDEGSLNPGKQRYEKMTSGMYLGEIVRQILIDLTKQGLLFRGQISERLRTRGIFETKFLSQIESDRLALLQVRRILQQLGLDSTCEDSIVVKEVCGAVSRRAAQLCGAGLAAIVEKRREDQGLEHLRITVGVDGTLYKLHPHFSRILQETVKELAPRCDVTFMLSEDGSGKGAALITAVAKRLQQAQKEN

Phospholipase A2 = Phospholipase A2 (Homo sapiens, UniProt P04054); format: functional;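 further: confirmatory dose-response counterscreen on phospholipase A2, testing hits that came from an ultra-high-throughput screen for ATG4B inhibitors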
Paired box protein Pax-8 = Paired box protein Pax-8 (Homo sapiens, UniProt Q06710); assay: PAX8 transcriptional activity inhibition in RMG-I – RMG-I cells, luciferase, cherry-pick, dose response (AID 687027); format: functional, cell-based;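 further: luciferase reporter driven by Pax8 target thyroperoxidase promoter measured by SteadyGlo luminescence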
[4] = molecular target: T2, Tyrosyl-DNA phosphodiesterase 2 (Homo sapiens, UniProt O95551); assay: potency against TDP2 phosphodiesterase activity – biochemical, epi absorbance, IC50, dose response (AID 743297)
T2 sequence (O95551 whole entry): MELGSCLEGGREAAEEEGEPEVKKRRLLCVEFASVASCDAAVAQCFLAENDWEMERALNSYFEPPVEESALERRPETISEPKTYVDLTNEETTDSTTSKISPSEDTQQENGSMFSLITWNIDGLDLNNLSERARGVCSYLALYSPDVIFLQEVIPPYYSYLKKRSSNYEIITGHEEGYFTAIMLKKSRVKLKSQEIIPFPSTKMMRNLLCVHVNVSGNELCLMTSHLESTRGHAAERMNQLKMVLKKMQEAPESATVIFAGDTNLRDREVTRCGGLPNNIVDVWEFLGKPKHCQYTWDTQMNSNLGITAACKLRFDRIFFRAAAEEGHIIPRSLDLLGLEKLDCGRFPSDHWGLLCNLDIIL

[5] = viability loss in THP-1 monocytes – THP-1 cells, cytotoxicity control for Vif-APOBEC3G degradation inhibitor project, dose response (AID 1117359); format: functional; conditions: THP-1
[6] = molecular target: Dual specificity tyrosine-phosphorylation-regulated kinase 1A (Rattus norvegicus, UniProt Q63470); format: biochemical, Homo sapiens
Cysteine protease ATG4B = molecular target: T3, Cysteine protease ATG4B (Homo sapiens, UniProt Q9Y4P1); format: functional;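 further: Fluorescence-based dose-response confirmation assay measuring inhibition of ATG4B activity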
T3 sequence (Q9Y4P1 whole entry): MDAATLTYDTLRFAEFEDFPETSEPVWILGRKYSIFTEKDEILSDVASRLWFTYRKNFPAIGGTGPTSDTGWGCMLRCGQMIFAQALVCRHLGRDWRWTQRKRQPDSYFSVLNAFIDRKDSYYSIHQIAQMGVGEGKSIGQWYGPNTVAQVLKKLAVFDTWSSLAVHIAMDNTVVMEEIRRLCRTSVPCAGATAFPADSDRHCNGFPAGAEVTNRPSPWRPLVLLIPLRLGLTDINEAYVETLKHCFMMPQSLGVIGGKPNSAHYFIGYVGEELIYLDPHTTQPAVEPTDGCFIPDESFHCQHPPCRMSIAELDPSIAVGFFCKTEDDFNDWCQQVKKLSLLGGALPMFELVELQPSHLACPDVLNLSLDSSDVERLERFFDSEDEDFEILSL

[7] = molecular target: T4, Histone-lysine N-methyltransferase NSD2 (Homo sapiens, UniProt O96028); format: biochemical
T4 sequence (O96028 whole entry): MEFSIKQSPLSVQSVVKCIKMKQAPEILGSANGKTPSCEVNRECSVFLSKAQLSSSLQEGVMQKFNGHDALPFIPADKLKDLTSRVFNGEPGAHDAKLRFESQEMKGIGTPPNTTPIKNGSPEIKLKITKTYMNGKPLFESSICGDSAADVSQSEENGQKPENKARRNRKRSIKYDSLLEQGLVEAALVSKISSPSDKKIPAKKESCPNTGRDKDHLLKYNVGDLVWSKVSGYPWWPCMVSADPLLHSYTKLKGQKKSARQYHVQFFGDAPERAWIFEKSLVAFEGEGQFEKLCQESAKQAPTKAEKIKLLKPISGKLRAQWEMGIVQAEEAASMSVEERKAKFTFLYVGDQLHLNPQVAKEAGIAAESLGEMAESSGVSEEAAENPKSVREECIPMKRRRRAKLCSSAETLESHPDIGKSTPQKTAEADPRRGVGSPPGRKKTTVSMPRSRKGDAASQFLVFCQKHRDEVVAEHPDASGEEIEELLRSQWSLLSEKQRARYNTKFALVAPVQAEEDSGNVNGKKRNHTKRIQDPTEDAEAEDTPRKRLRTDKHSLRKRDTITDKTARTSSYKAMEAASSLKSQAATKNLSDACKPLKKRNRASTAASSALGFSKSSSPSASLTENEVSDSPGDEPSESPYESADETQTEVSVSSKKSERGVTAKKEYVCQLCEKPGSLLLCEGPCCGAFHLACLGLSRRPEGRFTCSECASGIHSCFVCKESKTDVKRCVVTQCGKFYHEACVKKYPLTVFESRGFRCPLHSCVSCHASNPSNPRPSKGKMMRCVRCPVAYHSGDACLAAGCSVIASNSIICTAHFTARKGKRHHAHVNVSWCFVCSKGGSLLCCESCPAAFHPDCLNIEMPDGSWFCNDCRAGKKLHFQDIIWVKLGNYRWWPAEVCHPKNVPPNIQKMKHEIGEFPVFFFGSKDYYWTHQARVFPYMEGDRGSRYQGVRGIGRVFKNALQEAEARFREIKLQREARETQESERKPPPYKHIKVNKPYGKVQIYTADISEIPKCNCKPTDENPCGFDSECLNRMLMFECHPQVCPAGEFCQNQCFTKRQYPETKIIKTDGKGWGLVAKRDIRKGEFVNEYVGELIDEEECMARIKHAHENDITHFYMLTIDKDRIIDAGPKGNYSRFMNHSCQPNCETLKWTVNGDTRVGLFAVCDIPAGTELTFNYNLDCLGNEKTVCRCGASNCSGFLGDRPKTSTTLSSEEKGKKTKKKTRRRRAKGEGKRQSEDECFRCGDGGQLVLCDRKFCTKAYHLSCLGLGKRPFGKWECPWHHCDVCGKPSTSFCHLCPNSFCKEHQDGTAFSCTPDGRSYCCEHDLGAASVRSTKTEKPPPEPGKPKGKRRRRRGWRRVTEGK

Sequence of Mitochondrial peptide methionine sulfoxide reductase (P54149 whole entry): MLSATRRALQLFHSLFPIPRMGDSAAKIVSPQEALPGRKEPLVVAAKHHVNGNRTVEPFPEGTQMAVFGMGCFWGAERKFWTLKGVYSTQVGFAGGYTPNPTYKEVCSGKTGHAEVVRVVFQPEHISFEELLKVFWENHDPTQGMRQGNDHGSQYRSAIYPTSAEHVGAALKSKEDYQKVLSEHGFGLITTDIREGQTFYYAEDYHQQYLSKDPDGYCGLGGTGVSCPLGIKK
Sequence of Ras and Rab interactor 1/Tyrosine-protein kinase ABL1 (P00519 whole entry): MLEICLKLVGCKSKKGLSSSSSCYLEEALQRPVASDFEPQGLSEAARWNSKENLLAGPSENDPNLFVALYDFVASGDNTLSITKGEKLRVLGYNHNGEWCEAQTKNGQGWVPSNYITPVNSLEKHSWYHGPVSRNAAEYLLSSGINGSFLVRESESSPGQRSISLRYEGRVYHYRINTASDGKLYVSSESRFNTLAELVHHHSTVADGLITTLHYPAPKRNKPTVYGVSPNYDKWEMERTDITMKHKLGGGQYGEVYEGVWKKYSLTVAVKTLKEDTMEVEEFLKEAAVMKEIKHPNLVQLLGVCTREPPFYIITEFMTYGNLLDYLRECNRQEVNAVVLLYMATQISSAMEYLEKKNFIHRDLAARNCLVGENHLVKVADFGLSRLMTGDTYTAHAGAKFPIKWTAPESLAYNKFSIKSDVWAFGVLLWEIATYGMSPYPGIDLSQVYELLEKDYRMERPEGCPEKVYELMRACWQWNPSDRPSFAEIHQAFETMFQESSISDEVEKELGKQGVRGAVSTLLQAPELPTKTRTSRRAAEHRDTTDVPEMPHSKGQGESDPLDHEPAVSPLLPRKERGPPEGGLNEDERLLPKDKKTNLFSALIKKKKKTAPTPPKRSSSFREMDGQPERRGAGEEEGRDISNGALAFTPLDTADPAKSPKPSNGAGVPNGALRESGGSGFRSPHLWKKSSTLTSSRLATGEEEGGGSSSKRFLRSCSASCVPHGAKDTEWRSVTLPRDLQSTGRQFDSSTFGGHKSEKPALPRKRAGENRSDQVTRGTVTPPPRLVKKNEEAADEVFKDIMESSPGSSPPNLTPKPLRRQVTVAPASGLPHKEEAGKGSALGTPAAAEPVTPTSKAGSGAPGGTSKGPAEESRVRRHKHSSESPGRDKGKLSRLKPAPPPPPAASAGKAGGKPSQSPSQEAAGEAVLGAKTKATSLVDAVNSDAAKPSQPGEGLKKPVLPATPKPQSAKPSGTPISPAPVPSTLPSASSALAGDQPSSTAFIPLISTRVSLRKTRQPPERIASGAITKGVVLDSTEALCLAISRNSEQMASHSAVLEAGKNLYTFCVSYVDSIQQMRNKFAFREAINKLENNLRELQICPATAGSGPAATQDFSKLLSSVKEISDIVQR
Sequence of Ras and Rab interactor 1/Tyrosine-protein kinase ABL1 (Q13671 whole entry): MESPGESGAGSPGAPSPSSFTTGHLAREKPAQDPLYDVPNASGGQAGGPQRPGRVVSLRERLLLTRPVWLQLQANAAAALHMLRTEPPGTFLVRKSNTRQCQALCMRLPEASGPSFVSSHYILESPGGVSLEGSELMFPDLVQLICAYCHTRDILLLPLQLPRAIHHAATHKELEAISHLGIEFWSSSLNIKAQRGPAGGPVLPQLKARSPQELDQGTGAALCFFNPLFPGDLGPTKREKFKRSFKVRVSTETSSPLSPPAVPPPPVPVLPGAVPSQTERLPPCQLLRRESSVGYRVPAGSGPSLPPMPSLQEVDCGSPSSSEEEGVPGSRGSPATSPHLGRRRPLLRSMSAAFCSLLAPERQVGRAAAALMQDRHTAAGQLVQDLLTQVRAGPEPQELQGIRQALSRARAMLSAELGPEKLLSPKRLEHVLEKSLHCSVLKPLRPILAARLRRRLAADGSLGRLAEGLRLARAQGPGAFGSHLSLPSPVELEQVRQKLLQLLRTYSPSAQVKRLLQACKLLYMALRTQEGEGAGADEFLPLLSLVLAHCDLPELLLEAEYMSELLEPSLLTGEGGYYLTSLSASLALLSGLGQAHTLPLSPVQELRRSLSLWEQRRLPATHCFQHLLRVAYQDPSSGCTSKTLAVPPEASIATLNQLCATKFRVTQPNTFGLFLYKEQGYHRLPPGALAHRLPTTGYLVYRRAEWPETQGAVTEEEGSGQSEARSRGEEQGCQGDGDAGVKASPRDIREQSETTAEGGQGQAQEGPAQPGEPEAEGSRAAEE
Sequence of Phospholipase A2 (P04054 whole entry): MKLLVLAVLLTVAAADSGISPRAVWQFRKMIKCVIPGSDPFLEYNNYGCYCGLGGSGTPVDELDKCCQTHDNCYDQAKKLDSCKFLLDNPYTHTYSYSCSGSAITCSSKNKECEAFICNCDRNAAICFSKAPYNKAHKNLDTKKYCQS
Sequence of Paired box protein Pax-8 (Q06710 whole entry): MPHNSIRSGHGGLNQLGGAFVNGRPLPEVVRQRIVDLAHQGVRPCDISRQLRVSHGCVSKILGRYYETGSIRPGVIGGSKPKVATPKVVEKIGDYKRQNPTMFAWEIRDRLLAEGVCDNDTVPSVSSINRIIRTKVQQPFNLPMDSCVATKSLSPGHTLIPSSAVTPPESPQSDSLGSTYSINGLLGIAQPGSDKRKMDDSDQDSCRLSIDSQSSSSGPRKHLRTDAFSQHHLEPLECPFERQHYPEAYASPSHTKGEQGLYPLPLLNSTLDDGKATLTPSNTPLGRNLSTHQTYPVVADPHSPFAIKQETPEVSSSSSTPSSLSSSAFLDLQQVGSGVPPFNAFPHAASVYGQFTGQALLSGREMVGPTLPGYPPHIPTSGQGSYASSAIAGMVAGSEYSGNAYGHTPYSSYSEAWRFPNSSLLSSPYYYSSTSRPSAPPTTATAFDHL
Sequence of Genome polyprotein (P29990 2492-3391 limits assumed): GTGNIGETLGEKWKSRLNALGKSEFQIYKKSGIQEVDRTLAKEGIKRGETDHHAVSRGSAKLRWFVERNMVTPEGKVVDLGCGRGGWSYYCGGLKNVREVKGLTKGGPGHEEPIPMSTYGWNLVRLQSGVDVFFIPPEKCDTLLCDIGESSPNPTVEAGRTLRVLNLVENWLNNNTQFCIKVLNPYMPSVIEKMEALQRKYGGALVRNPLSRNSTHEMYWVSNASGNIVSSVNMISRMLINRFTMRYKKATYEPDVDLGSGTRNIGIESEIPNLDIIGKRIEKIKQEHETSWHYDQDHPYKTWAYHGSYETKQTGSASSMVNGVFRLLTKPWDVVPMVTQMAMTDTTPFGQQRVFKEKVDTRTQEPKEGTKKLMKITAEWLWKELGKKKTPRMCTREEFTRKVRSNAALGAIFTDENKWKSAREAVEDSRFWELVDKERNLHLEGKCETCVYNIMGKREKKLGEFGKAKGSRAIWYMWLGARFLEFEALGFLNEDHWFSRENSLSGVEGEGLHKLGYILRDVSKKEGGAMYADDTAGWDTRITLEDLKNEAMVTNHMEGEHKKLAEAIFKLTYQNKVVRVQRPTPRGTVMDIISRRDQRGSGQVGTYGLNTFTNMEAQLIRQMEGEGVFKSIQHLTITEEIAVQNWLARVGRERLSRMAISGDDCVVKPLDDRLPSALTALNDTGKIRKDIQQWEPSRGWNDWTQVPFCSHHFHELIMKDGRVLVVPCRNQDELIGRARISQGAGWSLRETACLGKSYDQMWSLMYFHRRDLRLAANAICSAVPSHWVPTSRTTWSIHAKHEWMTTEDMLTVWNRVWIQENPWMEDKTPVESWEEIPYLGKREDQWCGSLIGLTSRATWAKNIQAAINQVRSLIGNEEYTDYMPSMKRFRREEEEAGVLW

For `COC1=CC(=O)c2c(ccc3ncnc(N)c23)C1=O`, the AC50 [1] was 9.49 µM (active), the IC50 (Genome polyprotein) was 62.4 µM (active) and the CC50 (Vero) was 4.63 µM (active). For the same compound, the IC50 [2] was > 73.4 µM (inactive), the EC50 [3] was 14.1 µM (inactive) and the IC50 (Hexokinase HKDC1) was 1.56 µM (active). For the same compound, the IC50 (Phospholipase A2) was > 80 µM (inactive), the AC50 (Paired box protein Pax-8) was 1.06 µM (active) and the IC50 [4] was 0.842 µM (active). For the same compound, the CC50 [5] was 10.4 µM (active), the AC50 [6] was 2.53 µM (active) and the IC50 (Cysteine protease ATG4B) was 6.81 µM (active). The AC50 [7] was 1.28 µM (active).
